Laboratory results published in PMC5584945, “Evaluation of robenidine analog NCL195 as a novel broad-spectrum antibacterial agent” (PLoS ONE, 2017).
Read-outs that look alike come from different tables or passages of the source.

Key:
[1] = Kinetic solubility by nephelometry; type: physicochemical; settings: kinetic from dmso stock
[2] = test system: S. pneumoniae D39; assay: Minimum bactericidal concentration (MBC); type: cell-based; settings: Streptococcus pneumoniae
[3] = test system: S. aureus; assay: MIC, broth micro-dilution (CLSI); type: cell-based, Staphylococcus aureus; settings: for MIC / MIC50 / MIC90: Staphylococcus aureus
[4] = test system: human red blood cells; assay: Haemolysis assay; type: cell-based; settings: 1 h, 37°C; highest concentration used 128 μg/ml
Method: This was performed using fresh donor human red blood cells (RBCs), essentially as described previously. Fresh RBCs were washed in PBS three times at 500 × g for 5 min, and then resuspended 1% (w/v) in PBS. […] Thereafter, 198 μL of the 1% RBC solution was added into each well, and the mixture incubated for 1 h at 37°C, with shaking at 100 rpm. Quadruplicate wells containing either 1% Triton X100, or PBS only, served as controls. After incubation, the trays were centrifuged at 1,000 × g for 3 min and 100 μl of supernatant from each well transferred into a new 96-well tray. Absorbance was measured at A450 nm on a Multiskan Ascent 354 Spectrophotometer (Labsystems) and plotted against each dilution. Haemolytic titer was determined as the reciprocal of the dilution at which 50% of erythrocytes were lysed at A450 nm. The experiment was performed twice.

[5] = test system: MDBK; assay: Real-time cell viability, RealTime-Glo MT; type: cell-based, bovine; settings: 2 or 8 μg/ml, up to 20 h post-treatment
Excerpt: (§1) In order to ensure minimal off target mammalian cell cytotoxicity, we assayed NCL812, NCL195 and NCL219 for in vitro cytotoxicity using a panel of adherent mammalian cell lines: Caco-2 (human colorectal adenocarcinoma cell line), HEL 299 (non-cancerous human lung fibroblast cell line), Hep G2 (human hepatocellular carcinoma cell line), MDBK (normal bovine kidney cell line) and MCF7 (human mammary gland adenocarcinoma cell line). Cell lines were maintained in Dulbecco’s Modified Eagle’s Medium (DMEM; […] After 24 h incubation, media was removed, washed once with medium without antibiotics and fresh medium supplemented with 10% (vol/vol) FBS was added. […] Following exposure for 24 h, WST-1 reagent was added to each well at a final concentration of 10%. […] The IC50 value for each compound against each cell line was determined via non-linear regression (three parameters) using GraphPad Prism v6 software. The robustness of assays was confirmed with selected cell lines (Hep G2 and MDBK) seeded onto a 96–well Microwell Nunclon Delta Surface plate (Thermo Scientific Nunc; Cat No: 136101) at 5 × 10^4 cells per well.

[6] = test system: vancomycin-resistant enterococci (VRE); assay: MIC, broth micro-dilution (CLSI); type: cell-based, enterococci (porcine isolates); settings: for MIC50 / MIC90 / MIC: Enterococcus, VRE
[7] = test system: panel of mammalian cell lines (Caco-2, HEL 299, Hep G2, MDBK, MCF7); assay: In vitro cytotoxicity, WST-1, all cell lines tested; type: cell-based; settings: lower bound over all the cell lines tested
Excerpt: as §1

[8] = S2 Table isolates, absence of FBS
[9] = S3 Table isolates, absence of FBS

Cl.N=C(NN=Cc1ccc(Cl)cc1)NN=Cc1ccc(Cl)cc1 [NCL812, 2,2'-bis[(4-chlorophenyl)methylene] carbonimidic dihydrazide hydrochloride]
solubility ([1]; pH 2.0): 6.3 to 12.5 µg/mL
solubility ([1]; pH 6.5): < 1.6 µg/mL
MBC [2]: 8 µg/mL
Fold increase of MIC range in the presence of 10% FBS ([3]; 10% FBS versus no FBS): 4-8 fold
MIC range ([3]; 23 isolates): 2 to 8 µg/mL
MIC range ([3]; S2 Table isolates, 10% FBS): 32 µg/mL
MIC range [3, 8]: 2 to 8 µg/mL
MIC ([3]; ATCC 12600 / MSSA, ATCC12600 [Xen29] (MSSA), 10% FBS): 32 µg/mL
MIC ([3]; ATCC 12600 / MSSA, ATCC12600 [Xen29] (MSSA), absence of FBS): 4 µg/mL
MIC ([3]; ATCC 29213 / MSSA, ATCC29213 MSSA (ST5), 10% FBS, read-out: MIC): 32 µg/mL
MIC ([3]; ATCC 29213 / MSSA, ATCC29213 MSSA (ST5), absence of FBS, read-out: MIC): 4 µg/mL
MIC ([3]; ATCC 49775 / MSSA, ATCC 49775 (MSSA), 10% FBS, read-out: MIC): 32 µg/mL
MIC ([3]; ATCC 49775 / MSSA, ATCC 49775 (MSSA), absence of FBS, read-out: MIC): 2 µg/mL
MIC ([3]; IRISH 1 – HA-EMRSA (ST8), 10% FBS, read-out: MIC): 32 µg/mL
MIC ([3]; IRISH 1 – HA-EMRSA (ST8), absence of FBS, read-out: MIC): 2 µg/mL
MIC ([3]; IRISH 2 – HA-EMRSA (ST8), 10% FBS, read-out: MIC): 32 µg/mL
MIC ([3]; IRISH 2 – HA-EMRSA (ST8), absence of FBS, read-out: MIC): 2 µg/mL
MIC ([3]; MRSA / USA300, USA 300 - MRSA (ST8), 10% FBS, read-out: MIC): 32 µg/mL
MIC ([3]; MRSA / USA300, USA 300 - MRSA (ST8), absence of FBS, read-out: MIC): 2 µg/mL
MIC ([3]; MRSA, AUS2-MRSA (ST239), 10% FBS, read-out: MIC): 32 µg/mL
MIC ([3]; MRSA, AUS2-MRSA (ST239), absence of FBS, read-out: MIC): 2 µg/mL
MIC ([3]; MRSA, AUS3-MRSA (ST239), 10% FBS, read-out: MIC): 32 µg/mL
MIC ([3]; MRSA, AUS3-MRSA (ST239), absence of FBS, read-out: MIC): 2 µg/mL
MIC ([3]; MRSA, BENGAL BAY PVL+ – CA-MRSA (ST772), 10% FBS, read-out: MIC): 32 µg/mL
MIC ([3]; MRSA, BENGAL BAY PVL+ – CA-MRSA (ST772), absence of FBS, read-out: MIC): 2 µg/mL
MIC ([3]; MRSA, Classic–HA-MRSA (ST250), 10% FBS, read-out: MIC): 32 µg/mL
MIC ([3]; MRSA, Classic–HA-MRSA (ST250), absence of FBS, read-out: MIC): 2 µg/mL
MIC ([3]; MRSA, NY JAPAN – HA MRSA (ST5), 10% FBS, read-out: MIC): 32 µg/mL
MIC ([3]; MRSA, NY JAPAN – HA MRSA (ST5), absence of FBS, read-out: MIC): 2 µg/mL
MIC ([3]; MRSA, QLD PVL+ –CA-MRSA (ST93), 10% FBS, read-out: MIC): 32 µg/mL
MIC ([3]; MRSA, QLD PVL+ –CA-MRSA (ST93), absence of FBS, read-out: MIC): 2 µg/mL
MIC ([3]; MRSA, ST398–CA-MRSA-V (ST398), 10% FBS, read-out: MIC): 32 µg/mL
MIC ([3]; MRSA, ST398–CA-MRSA-V (ST398), absence of FBS, read-out: MIC): 2 µg/mL
MIC ([3]; MRSA, WA2–CA-MRSA (ST78), absence of FBS): 4 µg/mL
MIC ([3]; MRSA, WA84–CA-MRSA (ST45), absence of FBS): 4 µg/mL
MIC ([3]; MRSA, WSPP – PVL neg CA MRSA (ST30), absence of FBS, read-out: MIC): 2 µg/mL
MIC50 ([3]; S2 Table isolates, 10% FBS): 32 µg/mL
MIC90 ([3]; S2 Table isolates, 10% FBS): 32 µg/mL
MIC50 [3, 8]: 2 µg/mL
MIC90 [3, 8]: 4 µg/mL
MIC ([3]; TAIWAN PVL+ – CA-cMRSA (ST59), 10% FBS, read-out: MIC): 32 µg/mL
MIC ([3]; TAIWAN PVL+ – CA-cMRSA (ST59), absence of FBS, read-out: MIC): 2 µg/mL
MIC ([3]; UK 15 PVL+ – HA-EMRSA (ST22), 10% FBS, read-out: MIC): 32 µg/mL
MIC ([3]; UK 15 PVL+ – HA-EMRSA (ST22), absence of FBS, read-out: MIC): 4 µg/mL
MIC ([3]; UK 15 – HA-EMRSA (ST22), 10% FBS, read-out: MIC): 32 µg/mL
MIC ([3]; UK 15 – HA-EMRSA (ST22), absence of FBS, read-out: MIC): 4 µg/mL
MIC ([3]; UK 16 – HA- EMRSA (ST36), 10% FBS, read-out: MIC): 32 µg/mL
MIC ([3]; UK 16 – HA- EMRSA (ST36), absence of FBS, read-out: MIC): 4 µg/mL
MIC ([3]; UK 17 – HA-EMRSA (ST247), 10% FBS, read-out: MIC): 32 µg/mL
MIC ([3]; UK 17 – HA-EMRSA (ST247), absence of FBS, read-out: MIC): 2 µg/mL
50% haemolysis titre (HC50) [4]: 24 µg/mL
Effect on cell viability (real-time) [5]: affected viability at 8 μg/ml
Fold increase of MIC range in the presence of 10% FBS ([6]; 10% FBS versus no FBS): 8-16 fold
MIC range ([6]; 20 isolates): 2 to 4 µg/mL
MIC50 ([6]; S3 Table isolates, 10% FBS): 32 µg/mL
MIC90 ([6]; S3 Table isolates, 10% FBS): 32 µg/mL
MIC50 [6, 9]: 2 µg/mL
MIC90 [6, 9]: 2 µg/mL
MIC ([6]; VRE 1 (49 FR), 10% FBS): 32 µg/mL
MIC ([6]; VRE 1 (49 FR), absence of FBS): 2 µg/mL
MIC ([6]; VRE 2 (53 FR), 10% FBS): 32 µg/mL
MIC ([6]; VRE 2 (53 FR), absence of FBS): 2 µg/mL
MIC ([6]; VRE 3 (55 FR), 10% FBS): 32 µg/mL
MIC ([6]; VRE 3 (55 FR), absence of FBS): 2 µg/mL
MIC ([6]; VRE 4 (57 FR), 10% FBS): 32 µg/mL
MIC ([6]; VRE 4 (57 FR), absence of FBS): 2 µg/mL
MIC ([6]; VRE5 (58 FR), 10% FBS): 32 µg/mL
MIC ([6]; VRE5 (58 FR), absence of FBS): 4 µg/mL
MIC ([6]; VRE 6 (59 FR), 10% FBS): 32 µg/mL
MIC ([6]; VRE 6 (59 FR), absence of FBS): 2 µg/mL
MIC ([6]; VRE 7 (270 G), 10% FBS): 32 µg/mL
MIC ([6]; VRE 7 (270 G), absence of FBS): 4 µg/mL
MIC ([6]; VRE 8 (277 G), 10% FBS): 32 µg/mL
MIC ([6]; VRE 8 (277 G), absence of FBS): 2 µg/mL
MIC ([6]; VRE 9 (61 FR), 10% FBS): 32 µg/mL
MIC ([6]; VRE 9 (61 FR), absence of FBS): 2 µg/mL
MIC ([6]; VRE 10 (62 FR), 10% FBS): 32 µg/mL
MIC ([6]; VRE 10 (62 FR), absence of FBS): 2 µg/mL
MIC ([6]; VRE 11 (284 G), 10% FBS): 32 µg/mL
MIC ([6]; VRE 11 (284 G), absence of FBS): 2 µg/mL
MIC ([6]; VRE 12 (290 G), 10% FBS): 32 µg/mL
MIC ([6]; VRE 12 (290 G), absence of FBS): 2 µg/mL
MIC ([6]; VRE 13 (251 G), 10% FBS): 32 µg/mL
MIC ([6]; VRE 13 (251 G), absence of FBS): 2 µg/mL
MIC ([6]; VRE 14 (252 G), 10% FBS): 32 µg/mL
MIC ([6]; VRE 14 (252 G), absence of FBS): 2 µg/mL
MIC ([6]; VRE 15 (63 FR), 10% FBS): 32 µg/mL
MIC ([6]; VRE 15 (63 FR), absence of FBS): 2 µg/mL
MIC ([6]; VRE 16 (60 FR), 10% FBS): 32 µg/mL
MIC ([6]; VRE 16 (60 FR), absence of FBS): 4 µg/mL
MIC ([6]; VRE 17 (45 FR), 10% FBS): 32 µg/mL
MIC ([6]; VRE 17 (45 FR), absence of FBS): 2 µg/mL
MIC ([6]; VRE 18 (69 W), 10% FBS): 32 µg/mL
MIC ([6]; VRE 18 (69 W), absence of FBS): 2 µg/mL
MIC ([6]; VRE 19 (70 W), 10% FBS): 32 µg/mL
MIC ([6]; VRE 19 (70 W), absence of FBS): 2 µg/mL
MIC ([6]; VRE 20 (78 W), 10% FBS): 32 µg/mL
MIC ([6]; VRE 20 (78 W), absence of FBS): 2 µg/mL
MIC range ([6]; S3 Table isolates, 10% FBS): 32 µg/mL
MIC range [6, 9]: 2 to 4 µg/mL
IC50 [7]: > 4 µg/mL
